Test results as given in patent publication US6087364A, “Dopamine D4 receptor antagonists” (Warner-Lambert Company, priority 1998, dated 2000).
Like-named read-outs stand apart in the source and are kept apart here.

Key:
[1] = molecular target: T1, human recombinant dopamine D4.2 receptor (Homo sapiens, UniProt P21917, DEL265-296); assay: D4.2 dopamine receptor binding assay ([3H]spiperone, membranes of CHO K1 cells); conditions: human D4.2 receptor, 0.2 nM [3H]spiperone, 60 min, 25° C., apparent Ki from IC50 (Cheng and Prusoff)
T1 construct: expressed in transfected cells
T1 sequence (P21917 with tags, fused parts or gaps DEL265-296): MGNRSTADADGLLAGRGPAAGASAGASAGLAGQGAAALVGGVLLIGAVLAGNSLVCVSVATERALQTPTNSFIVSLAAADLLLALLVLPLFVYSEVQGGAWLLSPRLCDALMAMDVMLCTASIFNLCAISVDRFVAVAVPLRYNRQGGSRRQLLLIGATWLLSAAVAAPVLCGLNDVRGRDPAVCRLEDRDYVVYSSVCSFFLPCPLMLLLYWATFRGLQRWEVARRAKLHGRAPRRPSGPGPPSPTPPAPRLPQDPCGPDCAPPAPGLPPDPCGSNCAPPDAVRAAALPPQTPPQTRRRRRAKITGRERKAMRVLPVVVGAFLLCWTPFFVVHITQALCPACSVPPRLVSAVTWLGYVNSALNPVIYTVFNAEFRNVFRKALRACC
From the text: (§1) A cell line expressing human dopamine D2 (Long form) receptors was purchased from Oregon Health Sciences University, Portland, Oreg. The D2 receptor cDNA was subcloned into an expression vector, pRc/CMV. The plasmids were transfected by electroporation into CHO K1 cells. A single stable transfectant, resistant to the antibiotic G418, was isolated and selected for use in the binding studies. For D4 binding, CHO K1 cells stably transfected to express the human recombinant dopamine D4.2 receptor subtype, as described by Shih, et al., "The Expression and Functional Characterization of Human Dopamine D4.2 Receptor in CHO K1 Cells," Soc. Neurosci., 21(Part 1): 621 (1995).
(§2) CHO K1 cells expressing either human D2 and D4.2 receptors were grown in 162 cm^2 culture flasks in F12 medium (Gibco Laboratories, Grand Island, N.Y.) supplemented with 10% fetal bovine serum (FBS, Hyclone, Logan, Utah) in an atmosphere of 5% CO2 /95% air at 37° C. Cells were grown until confluent, after which growth medium was removed and replaced with 0.02% ethylene diamine tetracetate (EDTA) in a phosphate-buffered saline solution (Sigma Chemical Co., St. Louis, Mo.) and scraped from the flasks. The cells were centrifuged at about 1000× g for 10 minutes at […] and then resuspended in TEM buffer (25 mM Tris-HCl, pH 7.4, 5 mM EDTA, and 6 mM MgCl2) for D2 or the D4.2 buffer (50 mM Tris-HCl, pH 7.4, 5 mM EDTA, 1.5 mM CaCl2, 5 mM KC1, and 120 mM NaCl) and homogenized. The membranes were pelleted by centrifugation at 20,000× g at […] for 20 minutes. Then the pellets were resuspended in appropriate buffer at 1 mL/flask and stored at -70° C. until used in the receptor binding assay.
(§3) After 60 minutes incubation at 25° C., the incubations were terminated by rapid filtration through Whatmann GF/B glass fibre filters (soaked for 1 hour in 0.5% polyethylenimine) on a cell harvester, with three washes of 1 mL ice-cold buffer. Individual filter disks containing the bound ligand were placed in counting vials with 4 mL of scintillation fluid (Ready Gel, Beckman Instrument Inc., Fullerton, Calif.) and then counted in a Beckman LS-6800 liquid scintillation counter at an efficiency of 45%. Nonspecific binding was defined in presence of 1 mM of haloperidol.
(§4) Saturation and competition binding data were analyzed using an iterative nonlinear least-square curve-fitting Ligand program. […] Experimental compounds were made up as stock solutions in dimethyl sulfoxide (DMSO). […] Each observation was carried out in triplicate. To allow these calculations, Kd values were measured for the interaction of various ligands with the receptor.

[2] = molecular target: human dopamine D2 (Long form) receptor (Homo sapiens, UniProt P14416); assay: D2 dopamine receptor binding assay ([3H]spiperone, membranes of CHO K1 cells)
Chain of human dopamine D2 (Long form) receptor (P14416 whole entry): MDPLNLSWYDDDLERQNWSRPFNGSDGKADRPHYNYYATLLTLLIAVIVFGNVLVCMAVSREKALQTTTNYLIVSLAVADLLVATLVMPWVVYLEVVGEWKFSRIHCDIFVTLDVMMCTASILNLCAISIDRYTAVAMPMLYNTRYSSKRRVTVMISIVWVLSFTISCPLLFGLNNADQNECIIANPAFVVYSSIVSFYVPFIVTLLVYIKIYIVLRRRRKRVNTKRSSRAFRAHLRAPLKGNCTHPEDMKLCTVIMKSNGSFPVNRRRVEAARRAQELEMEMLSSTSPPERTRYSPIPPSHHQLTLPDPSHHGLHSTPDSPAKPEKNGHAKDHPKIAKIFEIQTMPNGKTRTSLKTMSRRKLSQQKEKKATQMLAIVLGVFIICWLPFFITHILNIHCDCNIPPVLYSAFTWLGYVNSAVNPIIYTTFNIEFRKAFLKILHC
From the text: as §1, §2, §3, §4

[3] = system: amphetamine-stimulated locomotion; assay: Blockade of Amphetamine-Stimulated Locomotion (BASL) in Rats; format: in vivo, Male Sprague-Dawley rats; conditions: Rattus norvegicus, 0.5 h, read-out: BASL ED50, mg/kg PO (dose which would reverse amphetamine-stimulated locomotion by 50%), drug 30 minutes prior to test, amphetamine 0.5 mg/kg IP 15 minutes prior to test, 30 minute test
From the text: Blockade of Amphetamine-Stimulated Locomotion (BASL) in Rats
Hyperactivity of brain dopamine (DA) neuronal systems is believed to contribute to the symptomology of schizophrenia. This hypothesis is supported, in part, by the ability of drugs such as the indirect DA agonist, amphetamine, to exacerbate schizophrenia. The stimulatory effect of amphetamine can be blocked by one of two mechanisms: a postsynaptic blockade of DA receptors, or by the action of DA autoreceptor agonists at inhibitory presynaptic DA receptor sites. Currently available antipsychotic drugs are DA receptor antagonists; however, these compounds can also cause extrapyramidal side effects apparently due to complete postsynaptic receptor blockade. Antipsychotic agents produce sedation (manifested as decreased locomotion) in normal animals, as well as in animals treated with psychomotor stimulants by reducing the access of endogenous DA to postsynaptic receptors in the brain.
Male Sprague-Dawley rats (Harlan Labs) were used for these studies. Drugs were dissolved in saline or water and administered either orally (PO) or intraperitoneally (IP) in volumes of 5 mL/kg. Saline control rats and amphetamine (0.5 mg/kg IP) control rats are included with each study (n=4-6 rats per treatment group). for the IP studies, amphetamine is given 20 minutes prior to the drug, after which a 30 minute locomotor activity test is conducted. For the oral study, drug is dosed 30 minutes prior to test, while amphetamine is given 15 minutes prior to test, which allows time for oral absorption. Locomotor activity (centimeters travelled per 30 minute test) is measured in 16"×16" open chambers. Amphetamine generally produces a 2- to 3-fold increase in locomotion over saline controls. Drug effects are reported as percent reversal of amphetamine-stimulated locomotion. Significant changes in amphetamine-stimulated locomotion, relative to amphetamine-treated controls, were determined by t-test.

Row | Structure (SMILES) | Ki [1] [nM] | Ki [2] [nM] | Ki ([2]; human D2 receptor, CHO K1 membranes, 0.2 nM [3H]spiperone, 60 min, 25° C., apparent Ki from IC50 (Cheng and Prusoff)) [nM] | ED50 [3] [mg/kg]
1 | O=C1NC(CCN2CCC(=C(c3ccccc3)c3ccccc3)CC2)c2ccccc21 (stereo not drawn) [3-[2-(4-(Diphenylmethylene)-piperidin-1-yl)-ethyl]-2,3-dihydro-isoindol-1-one] | 99.7 | 2150 |  | 
2 | Cc1ccc(C2CCN(CCC3NC(=O)c4ccccc43)CC2)cc1C (stereo not drawn) [3-{2-[4-(3,4-Dimethyl-phenyl)-piperidin-1-yl]-ethyl}-2,3-dihydro-isoindol-1-one] | 9.27 |  | 1210 | 
3 | Cc1ccc(N2CCN(CCC3NC(=O)c4ccccc43)CC2)cc1C (single isomer, unassigned; (+)) [(+)-3-{2-[4-(3,4-Dimethyl-phenyl)-piperazin-1-yl]-ethyl}-2,3-dihydro-isoindol-1-one] | 42 |  |  | 
4 | O=C1NC(CCN2CCN(c3ccccc3)CC2)c2ccccc21 (stereo not drawn) [3-[2-(4-Phenyl-piperazin-1-yl)-ethyl]-2,3-dihydro-isoindol-1-one] | 24.5 |  |  | 
5 | Cc1ccc(N2CCN(CCC3NC(=O)c4ccccc43)CC2)nc1 (stereo not drawn) [3-{2-[4-(5-Methyl-pyridin-2-yl)-piperazin-1-yl]-ethyl}-2,3-dihydro-isoindol-1-one] | 22.6 | > 5880 |  | 
6 | Cc1nc(N2CCN(CCC3NC(=O)c4ccccc43)CC2)sc1C (stereo not drawn) [3-[2-(4-(4,5-Dimethyl-thiazol-2-yl)-piperazin-1-yl)-ethyl]-2,3-dihydro-isoindol-1-one] | 20.8 | > 5880 |  | 
7 | COc1ccc(N2CCN(CCC3c4ccccc4C(=O)N3C)CC2)cc1 (stereo not drawn) [3-[2-(4-p-Methoxyphenyl-piperazin-1-yl)-ethyl]-2,3-dihydro-2-methyl-isoindol-1-one] | 37.3 | > 5880 |  | 
8 | Cc1ccc(N2CCN(CCC3NC(=O)c4ccccc43)CC2)cc1C (stereo not drawn) [3-{2-[4-(3,4-Dimethyl-phenyl)-piperazin-1-yl]-ethyl}-2,3-dihydro-isoindol-1-one] | 8.77 |  |  | 3
9 | Cc1ccc(N2CCN(CCC3NC(=O)c4ccccc43)CC2)cc1 (stereo not drawn) [3-[2-(4-P-Tolyl-piperazin-1-yl)-ethyl]-2,3-dihydro-isoindol-1-one] | 12.4 | > 5880 |  | < 1
10 | Cc1ccc(N2CCN(CCC3NC(=O)c4ccccc43)CC2)cc1C (single isomer, unassigned; (-)) [(-)-3-{2-[4-(3,4-Dimethyl-phenyl)-piperazin-1-yl]-ethyl}-2,3-dihydro-isoindol-1-one] | 7.8 |  |  | 1.5
11 | O=C1NC(CCN2CCN(c3ccc(Cl)cc3)CC2)c2ccccc21 (stereo not drawn) [3-[2-(4-p-Chlorophenyl-piperazin-1-yl)-ethyl]-2,3-dihydro-isoindol-1-one] | 27.8 | > 5880 |  | 
